Results taken from patent publication US9561228B2 (Celgene Avilomics Research, Inc., priority 2013, dated 2017).
pEC50: −log10 of the molar value.

Columns and labels:
[1] = tested on: ERK1/2 phosphorylation of p90RSK in HCT116 cells; assay: Detection of total and phospho-RSK by MSD ELISA (HCT116); assay type: cell-based; conditions: Homo sapiens, HCT-116, read-out: ERK1/ERK2 PRSK HCT116 EC50
In short: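 HCT116 cells treated with compound in RPMI/10% FBS for 2 h at 37° C, then lysed. Phospho-RSK (Ser380) and total RSK in lysates measured by MSD sandwich electrochemiluminescence ELISA as a readout of ERK1/2 activity.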

[2] = tested on: ERK1/2 phosphorylation of p90RSK in A375 cells; assay: Detection of total and phosphor-RSK by MSD ELISA (A375); assay type: cell-based; conditions: Homo sapiens, A-375, read-out: ERK1/ERK2 PRSK A375 EC50
In short: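 A375 cells serum-starved overnight in DMEM/0.1% FBS, then treated 2 h at 37° C with compound (1000× DMSO dilutions into medium). Lysates captured on RSK antibody-coated MSD plates; phospho-RSK (Ser380) and total RSK detected with SulfoTag secondary antibodies by electrochemiluminescence.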

Compound	pEC50 [1]	pEC50 [2]
C=CC(=O)Nc1cc(O[C@H](C)C(=O)N2CCN(S(C)(=O)=O)CC2)ccc1Nc1nc(Nc2cc(OC)ncc2C)ncc1C(F)(F)F [Compound I-410, (R)—N-(2-((2-((2-methoxy-5-methylpyridin-4-yl)amino)-5-(trifluoromethyl)pyrimidin-4-yl)amino)-5-((1-(4-(methylsulfonyl)piperazin-1-yl)-1-oxopropan-2-yl)oxy)phenyl)acrylamide]	6.30 to 7.00	6.30 to 7.00
C=CC(=O)Nc1cc(C)ccc1Nc1nc(Nc2nc(OC)ncc2F)ncc1C(F)(F)F [Compound I-357, N-(2-((2-((5-fluoro-2-methoxypyrimidin-4-yl)amino)-5-(trifluoromethyl)pyrimidin-4-yl)amino)-5-methylphenyl)acrylamide]	6.30 to 7.00	6.30 to 7.00
C=CC(=O)Nc1cc(OC(F)(F)F)ccc1Nc1nc(Nc2cc(OC)ncc2C)ncc1C(F)(F)F [Compound I-407, N-(2-((2-((2-methoxy-5-methylpyridin-4-yl)amino)-5-(trifluoromethyl)pyrimidin-4-yl)amino)-5-(trifluoromethoxy)phenyl)acrylamide]	6.30 to 7.00	6.30 to 7.00
C=CC(=O)Nc1cc(C)ccc1Nc1nc(Nc2ncc(F)c(OC)n2)ncc1C(F)(F)F [Compound I-356, N-(2-((2-((5-fluoro-4-methoxypyrimidin-2-yl)amino)-5-(trifluoromethyl)pyrimidin-4-yl)amino)-5-methylphenyl)acrylamide]	6.00 to 6.30	6.30 to 7.00
C=CC(=O)Nc1ccccc1Nc1nc(Nc2cc(OC)ncc2C)ncc1C(F)(F)F [Compound I-85, N-(2-((2-((2-Methoxy-5-methylpyridin-4-yl)amino)-5-(trifluoromethyl)pyrimidin-4-yl)amino)phenyl)acrylamide]	> 7.00	> 7.00
C=CC(=O)Nc1cc(C)ccc1Nc1nc(Nc2cc(N[C@H]3CC[C@](C)(O)CC3)nc(OC)c2)ncc1C(F)(F)F [Compound I-327, N-(2-((2-((2-((trans-4-hydroxy-4-methylcyclohexyl)amino)-6-methoxypyridin-4-yl)amino)-5-(trifluoromethyl)pyrimidin-4-yl)amino)-5-methylphenyl)acrylamide]	> 7.00	> 7.00

The next lines start with the values.

pEC50 [1]	pEC50 [2]	Compound
6.30 to 7.00	6.00 to 6.30	C=CC(=O)Nc1cc(C)ccc1Nc1nc(Nc2cc(C(=O)OC)nn2C)ncc1C(F)(F)F [Compound I-418, Methyl 5-((4-((2-acrylamido-4-methylphenyl)amino)-5-(trifluoromethyl)pyrimidin-2-yl)amino)-1-methyl-1H-pyrazole-3-carboxylate]
< 6.00	< 6.00	C=CC(=O)Nc1cc(C)ccc1Nc1nc(NC2COC2)ncc1C(F)(F)F [Compound I-420, N-(5-methyl-2-((2-(oxetan-3-ylamino)-5-(trifluoromethyl)pyrimidin-4-yl)amino)phenyl)acrylamide]
6.30 to 7.00	6.30 to 7.00	C=CC(=O)Nc1cc(O[C@@H](C)C(=O)N2CCN(S(C)(=O)=O)CC2)ccc1Nc1nc(Nc2cc(OC)ncc2C)ncc1C(F)(F)F [Compound I-426, (S)—N-(2-((2-((2-methoxy-5-methylpyridin-4-yl)amino)-5-(trifluoromethyl)pyrimidin-4-yl)amino)-5-((1-(4-(methylsulfonyl)piperazin-1-yl)-1-oxopropan-2-yl)oxy)phenyl)acrylamide]
6.00 to 6.30	< 6.00	C=CC(=O)Nc1cc(O[C@H](C)C(=O)N2CCN(C(C)=O)CC2)ccc1Nc1nc(Nc2cc(OC)ncc2C)ncc1C(F)(F)F [Compound I-409, (R)—N-(5-((1-(4-acetylpiperazin-1-yl)-1-oxopropan-2-yl)oxy)-2-((2-((2-methoxy-5-methylpyridin-4-yl)amino)-5-(trifluoromethyl)pyrimidin-4-yl)amino)phenyl)acrylamide]
6.30 to 7.00	6.30 to 7.00	C=CC(=O)Nc1cc(C)ccc1Nc1nc(Nc2cc(OC)nnc2OC)ncc1C(F)(F)F [Compound I-372, N-(2-((2-((3,6-dimethoxypyridazin-4-yl)amino)-5-(trifluoromethyl)pyrimidin-4-yl)amino)-5-methylphenyl)acrylamide]
